From patent US20240409585A1, “MACROCYCLIC IMMUNOMODULATORS” (priority 2021, published 2024)
Numbered stars: 1 amine (or outer) side, 2 acyl side, 3 side chain; on linkers, the order of the positions; unused ones are H or OH. Bridge positions count the residues as written; N and C are the ends. Square brackets hold non-standard residues; d marks the D form. Peptide text beside a SMILES is read from it. * marks the point of attachment. ξ: configuration not given here. Bip(4'-COOH) = N[C@@H](Cc1ccc(-c2ccc(C(=O)O)cc2)cc1)C(=O)O; Bip(4'-NHAc) = CC(=O)Nc1ccc(-c2ccc(C[C@H](N)C(=O)O)cc2)cc1; Phe(3-CF3) = N[C@@H](Cc1cccc(C(F)(F)F)c1)C(=O)O; Ala(morpholin-4-yl) = N[C@@H](CN1CCOCC1)C(=O)O; Phe(4-CONH2) = NC(=O)c1ccc(C[C@H](N)C(=O)O)cc1; Phe(4-COOH) = N[C@@H](Cc1ccc(C(=O)O)cc1)C(=O)O; Bip = N[C@@H](Cc1ccc(-c2ccccc2)cc1)C(=O)O; Phe(3-F) = N[C@@H](Cc1cccc(F)c1)C(=O)O; Phe(3-Me) = Cc1cccc(C[C@H](N)C(=O)O)c1; Abu(3S-NH2) = C[C@H](N)[C@H](N)C(=O)O; Val(3-OH) = CC(C)(O)[C@H](N)C(=O)O; X11 = CC(N)[C@H](N[*:1])C(=O)[*:2]; Cha = N[C@@H](CC1CCCCC1)C(=O)O; Thr(3ξ) = CC(O)[C@H](N)C(=O)O; Carboxymethyl = O=C(O)C*; NMeA = CN[C@@H](C)C(=O)O; Nle = CCCC[C@H](N)C(=O)O; Orn = NCCC[C@H](N)C(=O)O; Dab = NCC[C@H](N)C(=O)O

Key:
[1] = molecular target: T1, PE-labeled human PD-L1-Ig binding to Jurkat cell line over-expressing human PD-1 (Jurkat-PD-1) (Homo sapiens, UniProt Q15116); assay: Jurkat-PD-1 Cell Binding High-Content Screening Assay (CBA): Method 1; conditions: Jurkat-PD-1 cells, PE-labeled PD-L1-Ig; μM; read-out: CBA Method 1 μM
T1 construct: expressed in transfected cells; host or cells: Jurkat
T1 sequence (Q15116 25-288): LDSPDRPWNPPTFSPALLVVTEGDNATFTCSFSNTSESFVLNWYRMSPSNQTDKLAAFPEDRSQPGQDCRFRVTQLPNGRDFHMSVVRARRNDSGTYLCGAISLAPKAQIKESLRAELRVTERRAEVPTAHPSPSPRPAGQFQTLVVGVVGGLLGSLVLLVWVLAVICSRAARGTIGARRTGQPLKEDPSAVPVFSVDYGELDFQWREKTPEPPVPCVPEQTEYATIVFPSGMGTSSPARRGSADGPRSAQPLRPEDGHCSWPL

[2] = molecular target: T1, PE-labeled human PD-L1-Ig binding to Jurkat cell line over-expressing human PD-1 (Jurkat-PD-1); assay: Jurkat-PD-1 Cell Binding High-Content Screening Assay (CBA): Method 2 (presence and absence of tween-20); conditions: Jurkat-PD-1 cells, PE-labeled PD-L1-Ig 20 nM; presence or absence of tween-20 not given; head μM; read-out: CBA Method 2 μM
Method in brief: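 Compounds incubated with Jurkat cells overexpressing human PD-1 for 2 h at 37° C, tested with and without tween-20 to flag aggregation. PE-labeled human PD-L1-Ig (20 nM final) added in DMEM/10% FCS; binding read by high-content imaging.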

Structure (SMILES)	IC50 [1]	IC50 [2]
CC(C)C[C@H]1NC(=O)[C@H](C)N(C)C(=O)[C@H](CCC(N)=O)NC(=O)[C@H](Cc2ccc(-c3ccccc3)cc2)NC(=O)[C@H](Cc2ccc(-c3ccc(C(=O)O)cc3)cc2)NC(=O)[C@H](Cc2cccc(C(F)(F)F)c2)NC(=O)[C@H](CC(=O)O)NC(=O)[C@H](Cc2ccc(C(=O)O)cc2)NC(=O)[C@H](CN2CCOCC2)NC(=O)CSC[C@@H](C(=O)N[C@@H](CCN)C(N)=O)NC(=O)[C@H](CCCN)NC(=O)[C@H](C(C)C)NC(=O)[C@H](CC2CCCCC2)NC(=O)[C@H](CCN)NC1=O [Example 5058] ({CH2CO}-[Ala(morpholin-4-yl)][Phe(4-COOH)]D[Phe(3-CF3)][Bip(4'-COOH)][Bip]Q[NMeA][dL][Dab][Cha]V[Orn]C[Dab]-NH2; thioether N-14)	0.0032 µM	0.0024 µM
Cc1cccc(C[C@@H]2NC(=O)[C@H](CC(=O)O)NC(=O)[C@H](Cc3ccc(C(=O)O)cc3)NC(=O)[C@H](CN3CCOCC3)NC(=O)CSC[C@@H](C(=O)N[C@@H](CCN)C(N)=O)NC(=O)[C@H](CCCN)NC(=O)[C@H](C(C)C)NC(=O)[C@H](CC3CCCCC3)NC(=O)[C@H](CCN)NC(=O)[C@@H](CC(C)C)NC(=O)[C@H](C)N(C)C(=O)[C@H](CCC(N)=O)NC(=O)[C@H](Cc3ccc(-c4ccccc4)cc3)NC(=O)[C@H](Cc3ccc(-c4ccc(C(=O)O)cc4)cc3)NC2=O)c1 [Example 5059] ({CH2CO}-[Ala(morpholin-4-yl)][Phe(4-COOH)]D[Phe(3-Me)][Bip(4'-COOH)][Bip]Q[NMeA][dL][Dab][Cha]V[Orn]C[Dab]-NH2; thioether N-14)	0.0029 µM	0.0033 µM
Cc1cccc(C[C@@H]2NC(=O)[C@H](CC(=O)O)NC(=O)[C@H](Cc3ccc(C(=O)O)cc3)NC(=O)[C@H](CN3CCOCC3)NC(=O)CSC[C@@H](C(=O)N[C@@H](CCN)C(N)=O)NC(=O)[C@H](CCCN)NC(=O)[C@H](C(C)C)NC(=O)[C@H](Cc3cccc(F)c3)NC(=O)[C@H](CCN)NC(=O)[C@@H](CC(C)C)NC(=O)[C@H](C)N(C)C(=O)[C@H](CCC(N)=O)NC(=O)[C@H](Cc3ccc(-c4ccccc4)cc3)NC(=O)[C@H](Cc3ccc(-c4ccc(C(=O)O)cc4)cc3)NC2=O)c1 [Example 5060] ({CH2CO}-[Ala(morpholin-4-yl)][Phe(4-COOH)]D[Phe(3-Me)][Bip(4'-COOH)][Bip]Q[NMeA][dL][Dab][Phe(3-F)]V[Orn]C[Dab]-NH2; thioether N-14)	0.0068 µM	0.0093 µM
Cc1cccc(C[C@@H]2NC(=O)[C@H](CC(=O)O)NC(=O)[C@H](Cc3ccc(C(=O)O)cc3)NC(=O)[C@H](CC(C)C)NC(=O)CSC[C@@H](C(=O)N[C@@H](CCN)C(N)=O)NC(=O)[C@H](CCCN)NC(=O)[C@H](C(C)C)NC(=O)[C@H](CC3CCCCC3)NC(=O)[C@H](CCN)NC(=O)[C@@H](CC(C)C)NC(=O)[C@H](C)N(C)C(=O)[C@H](CCC(N)=O)NC(=O)[C@H](Cc3ccc(-c4ccccc4)cc3)NC(=O)[C@H](Cc3ccc(-c4ccc(C(=O)O)cc4)cc3)NC2=O)c1 [Example 5063] ({CH2CO}-L[Phe(4-COOH)]D[Phe(3-Me)][Bip(4'-COOH)][Bip]Q[NMeA][dL][Dab][Cha]V[Orn]C[Dab]-NH2; thioether N-14)	0.0054 µM	0.0052 µM
Cc1cccc(C[C@@H]2NC(=O)[C@H](CC(=O)O)NC(=O)[C@H](Cc3ccc(C(=O)O)cc3)NC(=O)[C@H](CC(C)C)NC(=O)CSC[C@@H](C(=O)N[C@@H](CCN)C(N)=O)NC(=O)[C@H](CCCN)NC(=O)[C@H](C(C)C)NC(=O)[C@H](Cc3cccc(F)c3)NC(=O)[C@H](CCN)NC(=O)[C@@H](CC(C)C)NC(=O)[C@H](C)N(C)C(=O)[C@H](CCC(N)=O)NC(=O)[C@H](Cc3ccc(-c4ccccc4)cc3)NC(=O)[C@H](Cc3ccc(-c4ccc(C(=O)O)cc4)cc3)NC2=O)c1 [Example 5064] ({CH2CO}-L[Phe(4-COOH)]D[Phe(3-Me)][Bip(4'-COOH)][Bip]Q[NMeA][dL][Dab][Phe(3-F)]V[Orn]C[Dab]-NH2; thioether N-14)	0.0544 µM	0.0348 µM
CCCC[C@@H]1NC(=O)CSC[C@@H](C(=O)N[C@@H](CCN)C(N)=O)NC(=O)[C@H](CO)NC(=O)[C@H](C(C)(C)O)NC(=O)[C@H](CC2CCCCC2)NC(=O)[C@H](CCN)NC(=O)[C@@H](CC(C)C)NC(=O)[C@H](C)N(C)C(=O)[C@H](Cc2ccc(C(N)=O)cc2)NC(=O)[C@H](Cc2ccc(-c3ccccc3)cc2)NC(=O)[C@H](Cc2ccc(OCC(=O)O)cc2)NC(=O)[C@H](Cc2cccc(C)c2)NC(=O)[C@H](CC(=O)O)NC(=O)[C@H](Cc2ccc(OCC(=O)O)cc2)NC1=O [Example 5065] ({CH2CO}-[Nle]Y(Carboxymethyl)D[Phe(3-Me)]Y(Carboxymethyl)[Bip][Phe(4-CONH2)][NMeA][dL][Dab][Cha][Val(3-OH)]SC[Dab]-NH2; thioether N-14)	0.0077 µM	0.006 µM
Cc1cccc(C[C@@H]2NC(=O)[C@H](CC(=O)O)NC(=O)[C@H](Cc3ccc(OCC(=O)O)cc3)NC(=O)[C@H](C(C)N)NC(=O)CSC[C@@H](C(=O)N[C@@H](CCN)C(N)=O)NC(=O)[C@H](CO)NC(=O)[C@H](C(C)(C)O)NC(=O)[C@H](CC3CCCCC3)NC(=O)[C@H](CCN)NC(=O)[C@@H](CC(C)C)NC(=O)[C@H](C)N(C)C(=O)[C@H](Cc3ccc(C(N)=O)cc3)NC(=O)[C@H](Cc3ccc(-c4ccccc4)cc3)NC(=O)[C@H](Cc3ccc(OCC(=O)O)cc3)NC2=O)c1 (stereo partly drawn) [Example 5066] ({CH2CO}-[X11]Y(Carboxymethyl)D[Phe(3-Me)]Y(Carboxymethyl)[Bip][Phe(4-CONH2)][NMeA][dL][Dab][Cha][Val(3-OH)]SC[Dab]-NH2; thioether N-14)	0.0304 µM	0.0028 µM

Further lines, results first:

IC50 [1]	IC50 [2]	Structure (SMILES)
0.0072 µM	0.0069 µM	Cc1cccc(C[C@@H]2NC(=O)[C@H](CC(=O)O)NC(=O)[C@H](Cc3ccc(OCC(=O)O)cc3)NC(=O)[C@H](C(C)O)NC(=O)CSC[C@@H](C(=O)N[C@@H](CCN)C(N)=O)NC(=O)[C@H](CO)NC(=O)[C@H](C(C)(C)O)NC(=O)[C@H](CC3CCCCC3)NC(=O)[C@H](CCN)NC(=O)[C@@H](CC(C)C)NC(=O)[C@H](C)N(C)C(=O)[C@H](Cc3ccc(C(N)=O)cc3)NC(=O)[C@H](Cc3ccc(-c4ccccc4)cc3)NC(=O)[C@H](Cc3ccc(OCC(=O)O)cc3)NC2=O)c1 (stereo partly drawn) [Example 5067] ({CH2CO}-[Thr(3ξ)]Y(Carboxymethyl)D[Phe(3-Me)]Y(Carboxymethyl)[Bip][Phe(4-CONH2)][NMeA][dL][Dab][Cha][Val(3-OH)]SC[Dab]-NH2; thioether N-14)
0.0172 µM	0.0106 µM	Cc1cccc(C[C@@H]2NC(=O)[C@H](CC(=O)O)NC(=O)[C@H](Cc3ccc(OCC(=O)O)cc3)NC(=O)[C@H](CCN)NC(=O)CSC[C@@H](C(=O)N[C@@H](CCN)C(N)=O)NC(=O)[C@H](CCC(N)=O)NC(=O)[C@H](C(C)C)NC(=O)[C@H](CC3CCCCC3)NC(=O)[C@H](CCN)NC(=O)[C@@H](CC(C)C)NC(=O)[C@H](C)N(C)C(=O)[C@H](Cc3ccc(C(N)=O)cc3)NC(=O)[C@H](Cc3ccc(-c4ccccc4)cc3)NC(=O)[C@H](Cc3ccc(OCC(=O)O)cc3)NC2=O)c1 [Example 5068] ({CH2CO}-[Dab]Y(Carboxymethyl)D[Phe(3-Me)]Y(Carboxymethyl)[Bip][Phe(4-CONH2)][NMeA][dL][Dab][Cha]VQC[Dab]-NH2; thioether N-14)
0.0136 µM	0.0131 µM	CCCC[C@@H]1NC(=O)CSC[C@@H](C(=O)N[C@@H](CCN)C(N)=O)NC(=O)[C@H](CO)NC(=O)[C@H](C(C)(C)O)NC(=O)[C@H](CC2CCCCC2)NC(=O)[C@H](CCN)NC(=O)[C@@H](CC(C)C)NC(=O)[C@H](C)N(C)C(=O)[C@H](Cc2ccc(C(N)=O)cc2)NC(=O)[C@H](Cc2ccc(-c3ccccc3)cc2)NC(=O)[C@H](Cc2ccc(-c3ccc(NC(C)=O)cc3)cc2)NC(=O)[C@H](Cc2cccc(C)c2)NC(=O)[C@H](CC(=O)O)NC(=O)[C@H](Cc2ccc(OCC(=O)O)cc2)NC1=O [Example 5069] ({CH2CO}-[Nle]Y(Carboxymethyl)D[Phe(3-Me)][Bip(4'-NHAc)][Bip][Phe(4-CONH2)][NMeA][dL][Dab][Cha][Val(3-OH)]SC[Dab]-NH2; thioether N-14)
0.0322 µM	0.0261 µM	CC(=O)Nc1ccc(-c2ccc(C[C@@H]3NC(=O)[C@H](Cc4cccc(C)c4)NC(=O)[C@H](CC(=O)O)NC(=O)[C@H](Cc4ccc(OCC(=O)O)cc4)NC(=O)[C@H](C(C)O)NC(=O)CSC[C@@H](C(=O)N[C@@H](CCN)C(N)=O)NC(=O)[C@H](CO)NC(=O)[C@H](C(C)(C)O)NC(=O)[C@H](CC4CCCCC4)NC(=O)[C@H](CCN)NC(=O)[C@@H](CC(C)C)NC(=O)[C@H](C)N(C)C(=O)[C@H](Cc4ccc(C(N)=O)cc4)NC(=O)[C@H](Cc4ccc(-c5ccccc5)cc4)NC3=O)cc2)cc1 (stereo partly drawn) [Example 5071] ({CH2CO}-[Thr(3ξ)]Y(Carboxymethyl)D[Phe(3-Me)][Bip(4'-NHAc)][Bip][Phe(4-CONH2)][NMeA][dL][Dab][Cha][Val(3-OH)]SC[Dab]-NH2; thioether N-14)
0.0059 µM	0.005 µM	CC(=O)Nc1ccc(-c2ccc(C[C@@H]3NC(=O)[C@H](Cc4cccc(C(F)(F)F)c4)NC(=O)[C@H](CC(=O)O)NC(=O)[C@H](Cc4ccc(C(=O)O)cc4)NC(=O)[C@H]([C@H](C)N)NC(=O)CSC[C@@H](C(=O)N[C@@H](CCN)C(N)=O)NC(=O)[C@H](CCC(N)=O)NC(=O)[C@H](C(C)C)NC(=O)[C@H](CC4CCCCC4)NC(=O)[C@H](CCN)NC(=O)[C@@H](CC(C)C)NC(=O)[C@H](C)N(C)C(=O)[C@H](Cc4ccc(C(N)=O)cc4)NC(=O)[C@H](Cc4ccc(-c5ccccc5)cc4)NC3=O)cc2)cc1 [Example 5073] ({CH2CO}-[Abu(3S-NH2)][Phe(4-COOH)]D[Phe(3-CF3)][Bip(4'-NHAc)][Bip][Phe(4-CONH2)][NMeA][dL][Dab][Cha]VQC[Dab]-NH2; thioether N-14)
